# Assay results from patent US8946167B2, “Pharmaceutical compositions containing plasma protein” (priority 1997, dated 2015).
# Legend:
# human gamma globulin = experiment: binding of active substance to human gamma globulin (ultrafiltration, HPLC); settings: Example II.4; 2.25% human gamma globulin + 0.1 mg/ml paclitaxel in absolute ethanol 9:1; lyophilised, redissolved; UF
# histamine release = experiment: hypersensitivity test: plasma histamine level in rats; type: in vivo, CRL (WI) BR male rats; settings: around 7.0 mg/kG for paclitaxel i.v., blood after 2, 5 and 10 minutes
# Protocol: Our study was performed on CRL (WI) BR male rats weighing 130-150 g [14]. […] A group for each time point and dose contained 5 animals. The blood samples were collected into heparin containing tubes after 2, 5 and 10 minutes of treatment. The plasma was separated by quick centrifugation. The samples were stored at −70° C.
# The histamine content of the sample was C^14-methylated by specific histamine-N-methyl-transferase enzyme. The histamine level was determined in the plasma samples measuring the C^14 radioactivity in the samples.
structure (smiles),measurement,setting,value
CC(=O)O[C@H]1C(=O)[C@@]2(C)[C@H]([C@H](OC(=O)c3ccccc3)[C@]3(O)C[C@H](OC(=O)[C@H](O)[C@@H](NC(=O)c4ccccc4)c4ccccc4)C(C)=C1C3(C)C)[C@]1(OC(C)=O)CO[C@@H]1C[C@@H]2O [paclitaxel],binding of paclitaxel to human gamma globulin,human gamma globulin,98%
same,histamine release induction (plasma histamine level),histamine release,do not show any such effect
